System: SKOV3 Ovarian Tumor Cells Implanted SC in SCID Mice
Assay: tissue distribution, SKOV3 tumor-bearing SCID mice
Type: in vivo
Protocol: For the in vitro amino acid uptake studies, all cells can be grown to monolayer confluency in T-175 culture flasks [Corning, Corning, N.Y.] (approx. 1×10^8 cells/flask) in Dulbecco's Modified Eagle's Medium (DMEM) [Sigma, St. Louis, Mo.] in a humidified incubator (37° C., 5% CO2/95% air). Media are supplemented with 10% fetal calf serum [Hyclone, Logan, Utah], and antibiotics (10,000 U/ml penicillin and 10 mg/ml streptomycin) (Sigma, St. Louis, Mo.). For tissue culture passage, monolayer cells are detached by gentle trypsinization, resuspended in complete media, and split 1:10 into new T-flasks. Cultures are passaged weekly, and fed fresh media every 2 to 3 days. To initiate tumor growth in SCID mice, 1×10^6 cells are injected s.c. bilaterally into the flanks (inguinal region) of the recipient animals using a 1 ml syringe with a 27 gauge needle. Ex vivo experiments can be performed with animals containing tumors weighing between 500 mg and 1 g, as estimated by caliper measurement (tumor weight=(π/6)*abc, where a, b and c are the tumor length, width and height, respectively). The compounds of the invention are further evaluated for their tumor specificity and selectivity in tumor-bearing animal models. One can evaluate and compare the transport, accumulation and tissue distribution of each compound in these in vivo animal studies. Tissue distribution of the compounds is measured in SCID mice (average weight, 20-25 g) bearing human tumors as follows. The candidate radioligands (20 uCi in 0.4 ml 0.9% NaCl) are injected into the tail vein of tumor-bearing mice. […] Tissues (blood, heart, liver, lungs, kidneys, bone, thyroid, muscle, brain and tumor) are excised, rinsed in saline, and blotted dry. The tissues are weighed, placed into 12×75 mm glass vials, the radioactivity determined with a gamma counter, and the percent dose/gram calculated. Total activities of blood and muscle are calculated by assuming that they account for 7% and 40% of the total body mass, respectively.

NC1(C(=O)O)CCC1[18F] [Anti-R,S 2-[^18F]FACBC, (R,S) anti-1-amino-2-[^18F]fluorocyclobutyl-1-carboxylic acid]
% Dose/g blood (15 Minutes): 3.01 % Dose/g | % Dose/g bone (15 Minutes): 1.40 % Dose/g | % Dose/g brain (15 Minutes): 0.18 % Dose/g | % Dose/g heart (15 Minutes): 2.37 % Dose/g | % Dose/g kidney (15 Minutes): 8.70 % Dose/g | % Dose/g liver (15 Minutes): 2.62 % Dose/g | % Dose/g lung (15 Minutes): 3.96 % Dose/g | % Dose/g muscle (15 Minutes): 1.14 % Dose/g | % Dose/g pancreas (15 Minutes): 34.27 % Dose/g | % Dose/g spleen (15 Minutes): 5.00 % Dose/g | % Dose/g tumor (15 Minutes): 4.89 % Dose/g | % Dose/g blood (30 Minutes): 2.22 % Dose/g | % Dose/g bone (30 Minutes): 1.46 % Dose/g | % Dose/g brain (30 Minutes): 0.21 % Dose/g | % Dose/g heart (30 Minutes): 2.16 % Dose/g | % Dose/g kidney (30 Minutes): 6.12 % Dose/g | % Dose/g liver (30 Minutes): 2.49 % Dose/g | % Dose/g lung (30 Minutes): 2.65 % Dose/g | % Dose/g muscle (30 Minutes): 1.21 % Dose/g | % Dose/g pancreas (30 Minutes): 31.88 % Dose/g | % Dose/g spleen (30 Minutes): 5.22 % Dose/g | % Dose/g tumor (30 Minutes): 5.56 % Dose/g | % Dose/g blood (60 Minutes): 0.94 % Dose/g | % Dose/g bone (60 Minutes): 0.91 % Dose/g | % Dose/g brain (60 Minutes): 0.15 % Dose/g | % Dose/g heart (60 Minutes): 1.40 % Dose/g | % Dose/g kidney (60 Minutes): 2.27 % Dose/g | % Dose/g liver (60 Minutes): 1.28 % Dose/g | % Dose/g lung (60 Minutes): 1.26 % Dose/g | % Dose/g muscle (60 Minutes): 1.03 % Dose/g | % Dose/g pancreas (60 Minutes): 17.57 % Dose/g | % Dose/g spleen (60 Minutes): 2.57 % Dose/g | % Dose/g tumor (60 Minutes): 4.53 % Dose/g | % Dose/g blood (120 Minutes): 0.53 % Dose/g | % Dose/g bone (120 Minutes): 0.94 % Dose/g | % Dose/g brain (120 Minutes): 0.16 % Dose/g | % Dose/g heart (120 Minutes): 1.00 % Dose/g | % Dose/g kidney (120 Minutes): 1.37 % Dose/g | % Dose/g liver (120 Minutes): 0.67 % Dose/g | % Dose/g lung (120 Minutes): 0.68 % Dose/g | % Dose/g muscle (120 Minutes): 0.65 % Dose/g | % Dose/g pancreas (120 Minutes): 10.42 % Dose/g | % Dose/g spleen (120 Minutes): 1.51 % Dose/g | % Dose/g tumor (120 Minutes): 3.39 % Dose/g
